Reference: US20260007133A1, “HERBICIDAL COMPOSITION COMPRISING AZINE COMPOUNDS” (BASF SE, priority 2022, published 2026)

Legend:
Assay type in all cases: in vivo
Euphorbia heterophylla [1] = experiment: Greenhouse pre-emergence (PRE) herbicidal test on EPHHL; conditions: Euphorbia heterophylla, pre-emergence
Summary of the method: (§1)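 Scoring ran from 0 (normal growth) to 100 (no emergence or above-ground parts fully destroyed) and was done 20 DAT. Application was pre-emergent in pots of loamy sand (~3.0% humus) sown per species. Plants grew at 10-25° C or 20-35° C by species.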

Ipomoea hederacea = experiment: Greenhouse pre-emergence (PRE) herbicidal test on IPOHE; conditions: Ipomoea hederacea, pre-emergence
Source text: (§2) The culture containers used were plastic pots containing loamy sand with approximately 3.0% of humus as substrate. The seeds of the test plants were sown separately for each species.
(§3) For the pre-emergence treatment, the active compounds, suspended or emulsified in water, were applied directly after sowing by means of finely distributing nozzles. The containers were irrigated gently to promote germination and growth and subsequently covered with transparent plastic hoods until the plants had rooted. This cover caused uniform germination of the test plants unless this was adversely affected by the active compounds.
(§4) Depending on the species, the plants were kept at 10-25° C. and 20-35° C., respectively.
(§5) The test period extended over 2 to 4 weeks. During this time, the plants were tended and their response to the individual treatments was evaluated.
(§6) Evaluation was carried out using a scale from 0 to 100. 100 means no emergence of the plants, or complete destruction of at least the above-ground parts, and 0 means no damage or normal course of growth. A good herbicidal activity is given at values of at least 70, and very good herbicidal activity is given at values of at least 85.
(§7) If not stated differently, the respective components A and B, and if appropriate, C were formulated as a 5% by weight strength emulsion concentrate and, with addition of the amount of solvent system, introduced into the spray liquor used for applying the active compound.
(§8) As indicated application was either post emergent (POST) at the respective growth stage (GS) of the weed (BBCH code), or pre-emergent (PRE).
(§9) Assessment was 20 days after treatment (DAT).

Abutilon theophrasti [2] = experiment: Greenhouse post-emergence (POST) herbicidal test on ABUTH; conditions: Abutilon theophrasti, post-emergence, 480 h, POST, ABUTH, 20 DAT
Summary of the method: (§10)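 Sow or transplant seedlings into loamy-sand pots; grow to 3–15 cm; spray aqueous suspension/emulsion of actives from a 5% by weight emulsion concentrate; hold at 10-25° C or 20-35° C depending on species; score injury 0–100 at 20 DAT.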

Amaranthus retroflexus = experiment: Greenhouse post-emergence (POST) herbicidal test on AMARE; conditions: Amaranthus retroflexus, post-emergence, 480 h, POST, 20 DAT
Summary of the method: as §10

Geranium pusillum [3] = experiment: Greenhouse post-emergence (POST) herbicidal test on GERPU; conditions: Geranium pusillum, post-emergence, 480 h, POST, GERPU, 20 DAT
Summary of the method: as §10

Abutilon theophrasti [4] = experiment: Greenhouse pre-emergence (PRE) herbicidal test on ABUTH
Summary of the method: as §1

Alopecurus myosuroides = experiment: Greenhouse pre-emergence (PRE) herbicidal test on ALOMY
Summary of the method: as §1

Avena fatua = experiment: Greenhouse pre-emergence (PRE) herbicidal test on AVEFA
Source text: as §2, §3, §4, §5, §6, §7, §8, §9

Commelina benghalensis [5] = experiment: Greenhouse pre-emergence (PRE) herbicidal test on COMBE; conditions: Commelina benghalensis, pre-emergence
Summary of the method: as §1

Galium aparine = experiment: Greenhouse pre-emergence (PRE) herbicidal test on GALAP; conditions: Galium aparine, pre-emergence; GALAP PRE, use rate 1200 gai/ha
Source text: as §2, §3, §4, §5, §6, §7, §8, §9

Geranium pusillum [6] = experiment: Greenhouse pre-emergence (PRE) herbicidal test on GERPU; conditions: for % activity: GERPU
Source text: as §2, §3, §4, §5, §6, §7, §8, §9

Lolium multiflorum = experiment: Greenhouse pre-emergence (PRE) herbicidal test on LOLMU; conditions: Lolium multiflorum, pre-emergence, LOLMU PRE
Summary of the method: as §1

Commelina benghalensis [7] = experiment: Greenhouse post-emergence (POST) herbicidal test on COMBE; conditions: 480 h, 20 DAT
Experimental: as §2
(§11) For the post-emergence treatment, the test plants were grown to a plant height of from 3 to 15 cm, depending on the plant habit, and only then treated with the active compounds which had been suspended or emulsified in water. To this end, the test plants were either sown directly, and grown in the same containers, or they were first grown separately as seedlings and transplanted into the test containers a few days prior to treatment.
as §4, §5, §6, §7, §8, §9

Digitaria sanguinalis = experiment: Greenhouse post-emergence (POST) herbicidal test on DIGSA; conditions: Digitaria sanguinalis, post-emergence, 480 h, POST, DIGSA, use rate 100 gai/ha, 20 DAT
Summary of the method: as §10

Echinochloa crus-galli [8] = experiment: Greenhouse post-emergence (POST) herbicidal test on ECHCG; conditions: Echinochloa crus-galli, post-emergence, 480 h, POST, ECHCG, use rate 100 gai/ha, 20 DAT; read-out: % activity
Summary of the method: as §10

Brachiaria decumbens = experiment: Greenhouse pre-emergence (PRE) herbicidal test on BRADC; conditions: Urochloa decumbens, BRADC PRE, use rate 400 gai/ha
Source text: as §2, §3, §4, §5, §6, §7, §8, §9

Echinochloa crus-galli [9] = experiment: Greenhouse pre-emergence (PRE) herbicidal test on ECHCG; conditions: PRE; for % activity: 10 DAT
Euphorbia heterophylla [10] = experiment: Greenhouse post-emergence (POST) herbicidal test on EPHHL; conditions: Euphorbia heterophylla, post-emergence, 480 h, POST, EPHHL, 20 DAT
Summary of the method: as §10

Setaria viridis = experiment: Greenhouse post-emergence (POST) herbicidal test on SETVI; conditions: 480 h, 20 DAT
Experimental: as §2, §11, §4, §5, §6, §7, §8, §9

AMAPA = experiment: Greenhouse pre-emergence (PRE) herbicidal test on AMAPA
Ambrosia artemisiifolia = experiment: Greenhouse pre-emergence (PRE) herbicidal test on AMBEL; conditions: PRE, 10 DAT

Cc1ccccc1CO[C@@H]1C[C@@]2(C(C)C)CC[C@]1(C)O2 (racemic) [Cinmethylin, cinmethylin]
inhibition at 25 g/ha (Euphorbia heterophylla [1]; 480 h, PRE, EPHHL, use rate 25 gai/ha, 20 DAT): 0%
inhibition at 50 g/ha (Euphorbia heterophylla [1]; 480 h, PRE, EPHHL, use rate 50 gai/ha, 20 DAT): 0%
inhibition at 25 g/ha (Ipomoea hederacea; 480 h, PRE, IPOHE, use rate 25 gai/ha, 20 DAT): 0%
inhibition at 50 g/ha (Ipomoea hederacea; 480 h, PRE, IPOHE, use rate 50 gai/ha, 20 DAT): 0%
inhibition at 50 g/ha (Abutilon theophrasti [2]; use rate 50 gai/ha): 0%
inhibition at 100 g/ha (Abutilon theophrasti [2]; use rate 100 gai/ha): 0%
inhibition at 25 g/ha (Amaranthus retroflexus; AMARE, use rate 25 gai/ha): 0%
inhibition at 100 g/ha (Amaranthus retroflexus; AMARE, use rate 100 gai/ha, read-out: % activity): 30%
inhibition at 25 g/ha (Geranium pusillum [3]; use rate 25 gai/ha): 10%

Nc1c([N+](=O)[O-])ccc(Oc2ccccc2)c1Cl [Aclonifen, aclonifen]
inhibition at 1200 g/ha (Abutilon theophrasti [4]; Abutilon theophrasti, pre-emergence, ABUTH PRE, use rate 1200 gai/ha): 35%
inhibition at 300 g/ha (Alopecurus myosuroides; Alopecurus myosuroides, pre-emergence, ALOMY PRE, use rate 300 gai/ha): 0%
inhibition at 1200 g/ha (Alopecurus myosuroides; Alopecurus myosuroides, pre-emergence, ALOMY PRE, use rate 1200 gai/ha): 50%
inhibition at 300 g/ha (Avena fatua; use rate 300 gai/ha): 0%
inhibition at 1200 g/ha (Avena fatua; use rate 1200 gai/ha): 0%
inhibition at 1200 g/ha (Commelina benghalensis [5]; COMBE PRE, use rate 1200 gai/ha): 85%
inhibition at 300 g/ha (Euphorbia heterophylla [1]; EPHHL PRE, use rate 300 gai/ha): 20%
inhibition at 1200 g/ha (Euphorbia heterophylla [1]; EPHHL PRE, use rate 1200 gai/ha): 50%
inhibition at 1200 g/ha (Galium aparine): 45%
inhibition at 300 g/ha (Geranium pusillum [6]; Geranium pusillum, pre-emergence, GERPU PRE, use rate 300 gai/ha): 30%
inhibition at 1200 g/ha (Geranium pusillum [6]; Geranium pusillum, pre-emergence, GERPU PRE, use rate 1200 gai/ha): 65%
inhibition at 1200 g/ha (Ipomoea hederacea; IPOHE PRE, use rate 1200 gai/ha): 0%
inhibition at 300 g/ha (Lolium multiflorum; use rate 300 gai/ha): 10%

COc1cc(OC)nc(Oc2cccc(Oc3nc(OC)cc(OC)n3)c2C(=O)O)n1 [Bispyribac-Sodium, bispyribac-sodium]
inhibition at […] (Abutilon theophrasti [4]; Abutilon theophrasti, pre-emergence, 480 h, PRE, use rate 7.5 gai/ha, 20 DAT, read-out: % activity): 5%
inhibition at 15 g/ha (Abutilon theophrasti [4]; Abutilon theophrasti, pre-emergence, 480 h, PRE, use rate 15 gai/ha, 20 DAT, read-out: % activity): 45%
inhibition at 15 g/ha (Commelina benghalensis [5]; 480 h, PRE, use rate 15 gai/ha, 20 DAT): 80%
inhibition at […] (Geranium pusillum [6]; Geranium pusillum, pre-emergence, 480 h, PRE, use rate 7.5 gai/ha, 20 DAT): 75%

O=C(Nc1ccc(F)cc1F)c1cccnc1Oc1cccc(C(F)(F)F)c1 [Diflufenican, diflufenican]
inhibition at 50 g/ha (Commelina benghalensis [7]; use rate 50 gai/ha): 25%
inhibition at 100 g/ha (Commelina benghalensis [7]; use rate 100 gai/ha): 20%
inhibition at 100 g/ha (Digitaria sanguinalis): 35%
inhibition at 100 g/ha (Echinochloa crus-galli [8]): 40%
inhibition at 50 g/ha (Geranium pusillum [3]; use rate 50 gai/ha): 25%

CCC(C)(CC)c1cc(NC(=O)c2c(OC)cccc2OC)on1 [Isoxaben, isoxaben]
inhibition at 400 g/ha (Alopecurus myosuroides; Alopecurus myosuroides, pre-emergence, ALOMY PRE, use rate 400 gai/ha): 15%
inhibition at 100 g/ha (Avena fatua; use rate 100 gai/ha): 0%
inhibition at 400 g/ha (Avena fatua; use rate 400 gai/ha): 0%
inhibition at 400 g/ha (Brachiaria decumbens): 0%
inhibition at 100 g/ha (Geranium pusillum [6]; Geranium pusillum, pre-emergence, GERPU PRE, use rate 100 gai/ha): 15%
inhibition at 100 g/ha (Lolium multiflorum; use rate 100 gai/ha): 0%
inhibition at 400 g/ha (Lolium multiflorum; use rate 400 gai/ha): 0%

O=C(Nc1ccc(F)cc1)c1cccc(Oc2cccc(C(F)(F)F)c2)n1 [Picolinafen, picolinafen]
% activity (Alopecurus myosuroides; PRE, ALOMY, use rate 50 gai/ha, 20 DAT): 25%
% activity (Geranium pusillum [6]; PRE, use rate 50 gai/ha, 20 DAT): 15%
% activity (Geranium pusillum [6]; PRE, use rate 100 gai/ha, 20 DAT): 40%

Cn1nc(C(F)(F)F)c(CS(=O)(=O)C2=NOC(C)(C)C2)c1OC(F)F [Pyroxasulfone, pyroxasulfone]
inhibition at 4 g/ha (Abutilon theophrasti [4]; Abutilon theophrasti, pre-emergence, 480 h, PRE, ABUTH, use rate 4 gai/ha, 20 DAT): 0%
inhibition at 8 g/ha (Abutilon theophrasti [4]; Abutilon theophrasti, pre-emergence, 480 h, PRE, ABUTH, use rate 8 gai/ha, 20 DAT, read-out: % activity): 0%
inhibition at 16 g/ha (Abutilon theophrasti [4]; Abutilon theophrasti, pre-emergence, 480 h, PRE, ABUTH, use rate 16 gai/ha, 20 DAT): 10%
inhibition at 4 g/ha (Echinochloa crus-galli [9]; Echinochloa crus-galli, pre-emergence, 480 h, ECHCG, use rate 4 gai/ha, 20 DAT): 80%
inhibition at 8 g/ha (Echinochloa crus-galli [9]; Echinochloa crus-galli, pre-emergence, 480 h, ECHCG, use rate 8 gai/ha, 20 DAT, read-out: % activity): 80%
inhibition at 4 g/ha (Euphorbia heterophylla [1]; 480 h, PRE, EPHHL, use rate 4 gai/ha, 20 DAT): 25%
inhibition at 8 g/ha (Euphorbia heterophylla [1]; 480 h, PRE, EPHHL, use rate 8 gai/ha, 20 DAT, read-out: % activity): 20%
inhibition at 16 g/ha (Euphorbia heterophylla [1]; 480 h, PRE, EPHHL, use rate 16 gai/ha, 20 DAT): 25%
inhibition at 16 g/ha (Ipomoea hederacea; 480 h, PRE, IPOHE, use rate 16 gai/ha, 20 DAT): 0%
inhibition at 16 g/ha (Commelina benghalensis [7]; use rate 16 gai/ha): 45%
inhibition at 8 g/ha (Euphorbia heterophylla [10]; use rate 8 gai/ha, read-out: % activity): 10%
inhibition at 16 g/ha (Euphorbia heterophylla [10]; use rate 16 gai/ha): 25%
inhibition at 4 g/ha (Setaria viridis; use rate 4 gai/ha): 30%
inhibition at 8 g/ha (Setaria viridis; use rate 8 gai/ha): 40%
inhibition at 16 g/ha (Setaria viridis; use rate 16 gai/ha): 80%

O=C(O)c1c(Cl)ccc2cc(Cl)cnc12 [Quinclorac, quinclorac]
inhibition at 500 g/ha (Commelina benghalensis [5]; 480 h, PRE, use rate 500 gai/ha, 20 DAT): 65%
inhibition at 125 g/ha (Amaranthus retroflexus; use rate 125 gai/ha): 50%
inhibition at 62.5 g/ha (AMAPA; pre-emergence, 480 h, use rate 62.5 gai/ha, 20 DAT): 60%
inhibition at 125 g/ha (AMAPA; pre-emergence, 480 h, use rate 125 gai/ha, 20 DAT): 65%
inhibition at 250 g/ha (AMAPA; pre-emergence, 480 h, use rate 250 gai/ha, 20 DAT): 65%
inhibition at 500 g/ha (AMAPA; pre-emergence, 480 h, use rate 500 gai/ha, 20 DAT): 70%

icafolin
% activity (Abutilon theophrasti [4]; PRE, use rate 12.5 gai/ha, 10 DAT): 20%
% activity (Ambrosia artemisiifolia; use rate 25 gai/ha): 10%
% activity (Ambrosia artemisiifolia; use rate 50 gai/ha): 15%
% activity (Echinochloa crus-galli [9]; use rate 12.5 gai/ha): 25%
% activity (Echinochloa crus-galli [9]; use rate 50 gai/ha): 30%
% activity (AMAPA; use rate 25 gai/ha, 10 DAT): 10%
